This passage reports TGI results from PubChem BioAssay (NCI).

Test systems include A498 renal; A549 NSCLC; ACHN renal; HCC-2998 colon; HCT-15 colon; HOP-62 NSCLC; MALME-3M melanoma; MOLT-4 leukemia; NCI-H226 lung; OVCAR-8 ovarian; RPMI-8226 leukemia; SK-MEL-5 melanoma; SN12C renal; U251 CNS; DU-145 prostate; HS 578T breast; MDA-MB-231 breast; SR leukemia.
Common to all, as to experiment: NCI-60 cell line screen, 48 h

Each structure is given as a SMILES string.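 Protocol summary: plate cells (96-well), add compound at 5 concentrations, incubate 48 h, interpolate endpoints linearly. TGI is the concentration that stops growth completely.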 A value given as a limit tells only on which side of the number the result lay.

In the case of `COc1ccc2c(c1)CC[C@@H]1C2CC[C@]2(C)C(=N\O)/C(=N/O)CC12` (stereo partly drawn), the TGI in the assay with A498 renal came to 34.2 µM; with A549 NSCLC, 24.7 µM; in the assay on ACHN renal it was 33.6 µM; with HCC-2998 colon it was 37.8 µM; in the assay with HCT-15 colon it was 26.2 µM; in the assay on HOP-62 NSCLC, 26 µM. Also, the TGI came to 32.5 µM in the assay with MALME-3M melanoma; 21.1 µM in the assay with MOLT-4 leukemia; 27.1 µM with NCI-H226 lung; 33.7 µM in the assay with OVCAR-8 ovarian; 35.2 µM in the assay with RPMI-8226 leukemia; 25.7 µM in the assay on SK-MEL-5 melanoma. For the same compound, the TGI with SN12C renal came out at 36.5 µM; with U251 CNS it was 28.7 µM.

`CN(C)CCn1c2c(c3ccccc31)CCc1ccccc1-2`: the TGI in the assay on A549 NSCLC is 28.3 µM; with ACHN renal it was 29.9 µM; in the assay with DU-145 prostate, 29.8 µM; with HCC-2998 colon it was 16.7 µM; in the assay on HCT-15 colon, 22.5 µM; with HOP-62 NSCLC, 29.1 µM. In addition, the TGI came to 29.7 µM in the assay on HS 578T breast; 30.5 µM in the assay on MALME-3M melanoma; 29.3 µM with MDA-MB-231 breast; 29.1 µM in the assay with MOLT-4 leukemia; 26 µM in the assay on NCI-H226 lung; 29.5 µM in the assay with OVCAR-8 ovarian. Besides, the TGI is 28.3 µM with RPMI-8226 leukemia; 21.1 µM with SK-MEL-5 melanoma; 28.3 µM in the assay with SN12C renal; 27.1 µM in the assay with SR leukemia; 26.8 µM with U251 CNS.

In the case of `CSC1=C(C(=O)N(COCC[Si](C)(C)C)c2ccccc2Br)CCC(C(C)(C)C)C1` (stereo not drawn), the TGI was 85.9 µM in the assay with A498 renal; greater than 100 µM in the assay on A549 NSCLC; 51.2 µM in the assay on ACHN renal; greater than 100 µM in the assay with DU-145 prostate; 27 µM in the assay on HCC-2998 colon; 26.1 µM in the assay on HCT-15 colon. Also, the TGI is 53.2 µM with HOP-62 NSCLC; 46.4 µM in the assay with MALME-3M melanoma; 30.5 µM in the assay on MDA-MB-231 breast; 21.9 µM with MOLT-4 leukemia; 34.4 µM with NCI-H226 lung; greater than 100 µM in the assay with OVCAR-8 ovarian. Moreover, the TGI with RPMI-8226 leukemia is greater than 100 µM; in the assay with SK-MEL-5 melanoma, 27.2 µM; with SN12C renal, 27.8 µM; in the assay on SR leukemia it was 11.7 µM; in the assay on U251 CNS, 24 µM.

Take `ClCCN(CC#CCCCC#CCN(CCCl)CCCl)CCCl`: the TGI with A498 renal was 26.4 µM; with A549 NSCLC, 31.8 µM; with ACHN renal, 15.2 µM; with HCC-2998 colon it was 32.9 µM; with HCT-15 colon, 27.2 µM; in the assay with HOP-62 NSCLC, 29.3 µM. Besides, the TGI with MALME-3M melanoma amounted to 32.5 µM; in the assay on MOLT-4 leukemia it was 6.59 µM; with NCI-H226 lung it was 37.2 µM; in the assay on OVCAR-8 ovarian, 23.9 µM; with RPMI-8226 leukemia, 13.4 µM; in the assay on SK-MEL-5 melanoma it was 24.3 µM. The TGI was found to be 21.2 µM with SN12C renal, 7.66 µM in the assay with SR leukemia and 23.8 µM with U251 CNS.

Take `CCOc1ccccc1NC(=O)CSc1nnc(Cc2ccccc2)o1`: the TGI is greater than 100 µM with A498 renal; greater than 100 µM with A549 NSCLC; 46.3 µM with ACHN renal; greater than 100 µM with HCC-2998 colon; 35.1 µM with HCT-15 colon; greater than 100 µM in the assay with HOP-62 NSCLC. Further, the TGI was 33.8 µM in the assay with MALME-3M melanoma; 71.3 µM with MOLT-4 leukemia; 57.5 µM in the assay with NCI-H226 lung; 54.8 µM in the assay with OVCAR-8 ovarian; greater than 100 µM with RPMI-8226 leukemia; 38.8 µM in the assay with SK-MEL-5 melanoma. The figures for the TGI in the assay with SN12C renal and in the assay on U251 CNS were 64.9 µM and 41 µM, respectively.

Take `NC(CCCNc1ccc(O)cc1)C(=O)O` (stereo not drawn): the TGI was greater than 73.1 µM in the assay with A498 renal; greater than 100 µM in the assay on A549 NSCLC; greater than 57.4 µM in the assay with ACHN renal; greater than 100 µM in the assay on HCC-2998 colon; greater than 60.7 µM in the assay with HCT-15 colon; greater than 100 µM with HOP-62 NSCLC. Besides, the TGI is greater than 100 µM in the assay with MALME-3M melanoma; 56.9 µM with MOLT-4 leukemia; greater than 100 µM in the assay on NCI-H226 lung; greater than 62.2 µM with OVCAR-8 ovarian; 54.8 µM in the assay with RPMI-8226 leukemia; 63.8 µM in the assay on SK-MEL-5 melanoma. The TGI in the assay with SN12C renal was greater than 70.6 µM; in the assay on SR leukemia, 55.8 µM; with U251 CNS it was greater than 100 µM.

Consider `COC(=O)C12OCC34C(CC5C(C)C6=CC(=O)OC6=CC5(C)C3C(O)C1O)OC(=O)C(OC(C)=O)C24` (stereo not drawn), for which the TGI was found to be 43.9 µM in the assay on A498 renal; 49.9 µM with A549 NSCLC; 38.9 µM with ACHN renal; 30 µM in the assay on HCC-2998 colon; 42.5 µM in the assay with HCT-15 colon; 53.2 µM in the assay on HOP-62 NSCLC. For the same compound, the TGI with MALME-3M melanoma was determined as 21.9 µM; with MOLT-4 leukemia, 45.6 µM; with NCI-H226 lung, 53.2 µM; in the assay with OVCAR-8 ovarian, 34.1 µM; in the assay on RPMI-8226 leukemia it was 40.5 µM; with SK-MEL-5 melanoma, 24.9 µM. Moreover, the TGI was 39.9 µM in the assay on SN12C renal, 64.6 µM in the assay with SR leukemia and 57.8 µM with U251 CNS.

In the case of `CC(SC(=S)N(C)C)C(=O)Nc1nnc(-c2ccc(Cl)cc2)o1` (stereo not drawn), the TGI in the assay with A498 renal, in the assay with A549 NSCLC, in the assay with ACHN renal, in the assay with DU-145 prostate, in the assay with HCC-2998 colon and with HCT-15 colon was greater than 100 µM in each case. Besides, the TGI was greater than 100 µM in the assay on HOP-62 NSCLC; greater than 100 µM in the assay on HS 578T breast; greater than 100 µM in the assay with MALME-3M melanoma; greater than 100 µM in the assay on MDA-MB-231 breast; 8.28 µM with MOLT-4 leukemia; greater than 100 µM in the assay on NCI-H226 lung. Besides, the TGI in the assay on OVCAR-8 ovarian was greater than 100 µM; with RPMI-8226 leukemia it was 66.6 µM; in the assay with SK-MEL-5 melanoma, greater than 100 µM; in the assay on SN12C renal, greater than 100 µM; with SR leukemia, 19.9 µM; with U251 CNS, greater than 100 µM.

Regarding `NCc1ccc(O)c(O)c1O`, the TGI with A498 renal was greater than 100 µM; in the assay on A549 NSCLC, 63.2 µM; with ACHN renal, 55.4 µM; in the assay on DU-145 prostate, greater than 100 µM; with HCC-2998 colon, greater than 81.7 µM; in the assay with HCT-15 colon, 47.7 µM. Moreover, the TGI with HOP-62 NSCLC was greater than 73.9 µM; in the assay on HS 578T breast it was 54.9 µM; in the assay on MALME-3M melanoma it was greater than 100 µM; in the assay on MDA-MB-231 breast, 43.5 µM; in the assay on MOLT-4 leukemia it was 64.9 µM; in the assay on NCI-H226 lung it was greater than 66.7 µM. Moreover, the TGI in the assay on OVCAR-8 ovarian is 49.1 µM; with RPMI-8226 leukemia it was 64.8 µM; in the assay on SK-MEL-5 melanoma it was 56 µM; in the assay with SN12C renal, 37.3 µM; in the assay on SR leukemia, 62 µM; with U251 CNS, 52.6 µM.
